{"source": "patent US10562857B2", "about": "(AFASCI, Inc., priority 2015, dated 2020)", "key": {"[1]": {"target": "T1, Cav3.2 channel (Homo sapiens, UniProt O95180)", "T1 construct": "expressed in transfected cells; host or cells: HEK-293, tetracycline inducible expression system (Invitrogen)", "T1 sequence (O95180 whole entry)": "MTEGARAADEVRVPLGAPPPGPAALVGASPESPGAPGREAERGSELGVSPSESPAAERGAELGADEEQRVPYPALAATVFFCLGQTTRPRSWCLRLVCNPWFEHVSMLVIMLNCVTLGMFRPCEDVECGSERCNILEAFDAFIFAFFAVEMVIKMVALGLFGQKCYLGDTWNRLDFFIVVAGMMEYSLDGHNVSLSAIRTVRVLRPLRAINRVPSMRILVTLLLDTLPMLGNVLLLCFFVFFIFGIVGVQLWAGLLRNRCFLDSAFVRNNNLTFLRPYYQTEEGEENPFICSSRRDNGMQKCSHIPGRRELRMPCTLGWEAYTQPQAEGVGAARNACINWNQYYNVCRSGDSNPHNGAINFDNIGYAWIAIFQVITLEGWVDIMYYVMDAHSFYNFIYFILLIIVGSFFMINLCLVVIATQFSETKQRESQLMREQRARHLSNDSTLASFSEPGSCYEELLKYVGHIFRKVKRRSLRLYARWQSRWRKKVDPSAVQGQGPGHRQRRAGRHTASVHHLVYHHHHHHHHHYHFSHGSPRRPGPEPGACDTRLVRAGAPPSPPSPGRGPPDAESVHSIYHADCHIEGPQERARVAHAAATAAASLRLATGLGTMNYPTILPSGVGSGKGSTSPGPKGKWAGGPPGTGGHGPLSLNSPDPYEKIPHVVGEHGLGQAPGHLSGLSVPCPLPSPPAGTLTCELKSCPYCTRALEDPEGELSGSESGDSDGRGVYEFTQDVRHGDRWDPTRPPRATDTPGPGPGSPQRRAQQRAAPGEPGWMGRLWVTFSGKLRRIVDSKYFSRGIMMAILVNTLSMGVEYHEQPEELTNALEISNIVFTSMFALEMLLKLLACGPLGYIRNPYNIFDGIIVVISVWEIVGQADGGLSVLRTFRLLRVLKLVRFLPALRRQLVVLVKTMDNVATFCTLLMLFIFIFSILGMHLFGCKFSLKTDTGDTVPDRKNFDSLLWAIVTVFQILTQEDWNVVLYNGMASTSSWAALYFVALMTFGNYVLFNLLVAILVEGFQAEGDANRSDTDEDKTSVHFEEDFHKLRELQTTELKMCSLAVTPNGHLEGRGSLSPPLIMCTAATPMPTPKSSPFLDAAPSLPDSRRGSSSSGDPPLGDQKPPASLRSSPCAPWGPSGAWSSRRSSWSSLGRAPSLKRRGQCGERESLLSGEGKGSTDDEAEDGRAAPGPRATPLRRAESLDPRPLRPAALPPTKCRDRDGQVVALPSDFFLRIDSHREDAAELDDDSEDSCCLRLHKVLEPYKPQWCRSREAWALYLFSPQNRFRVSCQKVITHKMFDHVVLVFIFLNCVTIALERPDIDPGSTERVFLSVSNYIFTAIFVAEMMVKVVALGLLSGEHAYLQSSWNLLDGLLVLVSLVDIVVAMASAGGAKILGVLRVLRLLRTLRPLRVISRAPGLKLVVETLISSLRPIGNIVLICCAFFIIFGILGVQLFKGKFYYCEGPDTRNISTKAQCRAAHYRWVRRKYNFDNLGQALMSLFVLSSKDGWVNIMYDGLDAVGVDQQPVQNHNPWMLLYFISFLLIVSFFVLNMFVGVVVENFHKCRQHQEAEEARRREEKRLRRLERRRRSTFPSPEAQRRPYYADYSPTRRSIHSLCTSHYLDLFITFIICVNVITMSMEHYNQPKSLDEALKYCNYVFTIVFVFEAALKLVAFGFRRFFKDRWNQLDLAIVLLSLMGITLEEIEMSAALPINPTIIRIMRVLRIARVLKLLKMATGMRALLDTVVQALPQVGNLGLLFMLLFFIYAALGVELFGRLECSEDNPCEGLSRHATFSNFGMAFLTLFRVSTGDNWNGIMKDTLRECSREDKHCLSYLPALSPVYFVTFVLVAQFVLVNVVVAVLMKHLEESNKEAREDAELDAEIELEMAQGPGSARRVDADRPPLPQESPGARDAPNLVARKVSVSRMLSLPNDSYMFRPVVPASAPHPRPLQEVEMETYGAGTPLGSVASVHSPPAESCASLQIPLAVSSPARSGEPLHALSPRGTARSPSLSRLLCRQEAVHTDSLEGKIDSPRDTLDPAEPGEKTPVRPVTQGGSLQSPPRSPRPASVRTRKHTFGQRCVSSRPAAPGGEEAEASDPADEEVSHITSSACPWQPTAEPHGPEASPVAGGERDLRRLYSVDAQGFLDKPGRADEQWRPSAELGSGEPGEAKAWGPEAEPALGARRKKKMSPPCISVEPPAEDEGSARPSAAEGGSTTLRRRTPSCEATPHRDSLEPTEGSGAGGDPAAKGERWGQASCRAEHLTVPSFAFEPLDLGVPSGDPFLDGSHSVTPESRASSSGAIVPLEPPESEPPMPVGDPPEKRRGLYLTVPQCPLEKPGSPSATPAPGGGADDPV", "assay": "Whole-cell patch clamp of T-type Cav3.2 channel expressed in HEK293 cells", "assay_type": "cell-based", "settings": "for inhibition at 1 µM: HEK293, Table 1 primary screening"}, "[2]": {"system": "incision-induced pain in mice", "assay": "Incision-induced acute pain in mice, von Frey test", "assay_type": "in vivo, mouse", "settings": "30 mg/kg I.P.", "protocol": "FIG. 9. Effects of EXAMPLE-116, -118 or ML218 (a reference compound) on incision-induced acute pain in mice (C57BL/6, male, ˜2 months old; n=8 mice per treatment group). Mechanical pain threshold assessment (von Frey monofilament test) of the mice's incision left hindpaws. Each mouse received either EXAMPLE-116, -118, or ML218 (as a reference compound, each 30 mg/kg, I.P.) or vehicle (2% DMSO in 0.5% HPC, I.P.). Mechanical pain responses were measured at 0.5, 1, 2, 4, and 5 hours after treatment.\nTo further confirm the Cav3 modulator effects on acute pain and neurogenic inflammatory pain, an incision-pain mode in mice was used. Postoperative pain model induced by a deep incision in the hindpaw produces robust mechanical allodynia (Pogatzki et al., 2003). Mechanical pain thresholds were assessed using von Frey monofilament test of the incised left hindpaws. Each mouse received either EXAMPLE-116, -118, ML218 (as a reference compound, each 30 mg/kg, I.P.) or vehicle (2% DMSO in 0.5% HPC, I.P., n=8 mice per treatment group). Mechanical pain responses were measured at 0.5, 1, 2, 4, and 5 hours after treatment."}, "[3]": {"system": "taxol-induced neuropathic pain model in mice", "assay": "Taxol-induced neuropathic pain in mice, von Frey test", "assay_type": "in vivo, mouse", "settings": "30 mg/kg I.P.", "protocol": "FIG. 6A. Effects of EXAMPLE-115 on taxol (4 mg/kg, I.P.)-induced neuropathic pain model in mice. Mechanical pain thresholds of left hindpaws were assessed using von Frey monofilament test. Each mouse received either EXAMPLE-115 (3, 10 or 30 mg/kg, I.P.) or vehicle (2% DMSO in 0.5% HPC, I.P.; n=8 per group). Injection of taxol lowered mechanical pain thresholds.\nFIG. 6B. Effects of EXAMPLE-123 on taxol (4 mg/kg, I.P.)-induced neuropathic pain model in a separate cohort of mice. Mechanical pain thresholds of left hindpaws were assessed using von Frey monofilament test. Each mouse received either EXAMPLE-123 (30 mg/kg, I.P., n=8) or vehicle (2% DMSO in 0.5% HPC, I.P.).\nChemotherapy-induced painful neuropathy is a common side effect associated with chronic treatment with Taxol (paclitaxel) or other anticancer drugs based on cytotoxicity. Taxol or paclitaxel is one of the most popular drugs used for the treatment of various cancers (Chaudhry et al., 1994). The chemotherapy-induced peripheral neuropathy manifests as chronic hyperalgesia and other sensory abnormalities. Taxol (Sigma, 4.0 mg/kg, I.P.) was dissolved in saline containing 5% DMSO (vehicle) and injected to mice (freshly prepared before injection)."}, "[4]": {"system": "T-type Ca2+ current", "settings": "Avdonin et al., 2000; cited from earlier work"}}, "note": "“Also recorded” adds a separate entry of the source."}
{"smiles": "O=C(Nc1nnc(-c2ccc(Cl)s2)o1)N1C(=O)c2cc(Cl)c(Cl)cc2C1=O", "note": "[Example 116, 5,6-Dichloro-N-(5-(5-chlorothiophen-2-yl)-1,3,4-oxadiazol-2-yl)-1,3-dioxoisoindoline-2-carboxamide]", "values": [{"measurement": "inhibition at 1 µM", "setting": "[1]", "result": 10, "unit": "%"}, {"measurement": "mechanical pain threshold, incision-induced pain", "setting": "[2]", "result": "inhibited incision-induced inflammatory pain"}]}
{"smiles": "O=C(CCc1cccc(Cl)c1)Nc1nnc(-c2ccc(Cl)s2)o1", "note": "[Example 118, 3-(3-Chlorophenyl)-N-(5-(5-chlorothiophen-2-yl)-1,3,4-oxadiazol-2-yl)propanamide]", "values": [{"measurement": "inhibition at 1 µM", "setting": "[1]", "result": 20, "unit": "%"}, {"measurement": "mechanical pain threshold, incision-induced pain", "setting": "[2]", "result": "inhibited incision-induced inflammatory pain"}]}
{"smiles": "O=C(CNc1ccccc1)Nc1nnc(-c2ccccc2)o1", "note": "[Example 123, N-(5-Phenyl-1,3,4-oxadiazol-2-yl)-2-(phenylamino)acetamide]", "values": [{"measurement": "IC50", "setting": "[1]; Table 1, tested at at least 4 concentrations, read-out: IC50", "result": 5.1, "unit": "µM"}, {"measurement": "duration of reduction of taxol-induced neuropathic pain", "setting": "[3]", "result": "at least 5 hours"}, {"measurement": "mechanical pain threshold, taxol-induced neuropathic pain", "setting": "[3]; taxol 4 mg/kg I.P.", "result": "caused significant effects on Taxol-induced pain; also recorded: reduced the taxol-induced neuropathic pain"}]}
{"smiles": "COCC(=O)O[C@]1(CCN(C)CCCc2nc3ccccc3[nH]2)CCc2cc(F)ccc2[C@@H]1C(C)C", "note": "[mibefradil]", "values": [{"measurement": "potency of T-type inhibition relative to L-type Ca2+ current or voltage-gated Na+ current", "setting": "[4]", "result": "3-10 times"}]}
